Source: ChEMBL document CHEMBL5678810
Active and inactive are the calls of the source. No cut-off for these calls is given here.

What was measured:
[1] = test system: Tyrosine-protein kinase ABL1 (Homo sapiens), P00519 [H396P]; assay: Inhibition of T7 bacteriophage fused human nonphosphorylated ABL1 H396P mutant at 10 uM by KINOMEscan analysis relative to control
[2] = biological target: Activin receptor type-2A (Homo sapiens) (UniProt P27037); assay: Inhibition of T7 bacteriophage fused human ACVR2A at 10 uM by KINOMEscan analysis relative to control
[3] = biological target: Activin receptor type-1-like (Homo sapiens) (UniProt P37023); assay: Inhibition of T7 bacteriophage fused human ACVRL1 at 10 uM by KINOMEscan analysis relative to control
[4] = biological target: Bone morphogenetic protein receptor type-1A (Homo sapiens) (UniProt P36894); assay: Inhibition of T7 bacteriophage fused human BMPR1A at 10 uM by KINOMEscan analysis relative to control
[5] = test system: Epidermal growth factor receptor (Homo sapiens), P00533 [L861Q]; assay: Inhibition of T7 bacteriophage fused human EGFR L861Q mutant at 10 uM by KINOMEscan analysis relative to control
[6] = biological target: Ephrin type-B receptor 4 (Homo sapiens) (UniProt P54760); assay: Inhibition of T7 bacteriophage fused human EPHB4 at 10 uM by KINOMEscan analysis relative to control
[7] = biological target: Receptor tyrosine-protein kinase erbB-4 (Homo sapiens) (UniProt Q15303); assay: Inhibition of T7 bacteriophage fused human ERBB4 at 10 uM by KINOMEscan analysis relative to control
[8] = biological target: Mitogen-activated protein kinase 4 (Homo sapiens) (UniProt P31152); assay: Inhibition of T7 bacteriophage fused human ERK4 at 10 uM by KINOMEscan analysis relative to control
[9] = test system: Receptor-type tyrosine-protein kinase FLT3 (Homo sapiens), P36888 [D835H]; assay: Inhibition of T7 bacteriophage fused human FLT3 D835H mutant at 10 uM by KINOMEscan analysis relative to control
[10] = biological target: Homeodomain-interacting protein kinase 1 (Homo sapiens) (UniProt Q86Z02); assay: Inhibition of T7 bacteriophage fused human HIPK1 at 10 uM by KINOMEscan analysis relative to control
Chain of Homeodomain-interacting protein kinase 1 (Homo sapiens) (Q86Z02 whole entry, looked up, the tested form may be a part): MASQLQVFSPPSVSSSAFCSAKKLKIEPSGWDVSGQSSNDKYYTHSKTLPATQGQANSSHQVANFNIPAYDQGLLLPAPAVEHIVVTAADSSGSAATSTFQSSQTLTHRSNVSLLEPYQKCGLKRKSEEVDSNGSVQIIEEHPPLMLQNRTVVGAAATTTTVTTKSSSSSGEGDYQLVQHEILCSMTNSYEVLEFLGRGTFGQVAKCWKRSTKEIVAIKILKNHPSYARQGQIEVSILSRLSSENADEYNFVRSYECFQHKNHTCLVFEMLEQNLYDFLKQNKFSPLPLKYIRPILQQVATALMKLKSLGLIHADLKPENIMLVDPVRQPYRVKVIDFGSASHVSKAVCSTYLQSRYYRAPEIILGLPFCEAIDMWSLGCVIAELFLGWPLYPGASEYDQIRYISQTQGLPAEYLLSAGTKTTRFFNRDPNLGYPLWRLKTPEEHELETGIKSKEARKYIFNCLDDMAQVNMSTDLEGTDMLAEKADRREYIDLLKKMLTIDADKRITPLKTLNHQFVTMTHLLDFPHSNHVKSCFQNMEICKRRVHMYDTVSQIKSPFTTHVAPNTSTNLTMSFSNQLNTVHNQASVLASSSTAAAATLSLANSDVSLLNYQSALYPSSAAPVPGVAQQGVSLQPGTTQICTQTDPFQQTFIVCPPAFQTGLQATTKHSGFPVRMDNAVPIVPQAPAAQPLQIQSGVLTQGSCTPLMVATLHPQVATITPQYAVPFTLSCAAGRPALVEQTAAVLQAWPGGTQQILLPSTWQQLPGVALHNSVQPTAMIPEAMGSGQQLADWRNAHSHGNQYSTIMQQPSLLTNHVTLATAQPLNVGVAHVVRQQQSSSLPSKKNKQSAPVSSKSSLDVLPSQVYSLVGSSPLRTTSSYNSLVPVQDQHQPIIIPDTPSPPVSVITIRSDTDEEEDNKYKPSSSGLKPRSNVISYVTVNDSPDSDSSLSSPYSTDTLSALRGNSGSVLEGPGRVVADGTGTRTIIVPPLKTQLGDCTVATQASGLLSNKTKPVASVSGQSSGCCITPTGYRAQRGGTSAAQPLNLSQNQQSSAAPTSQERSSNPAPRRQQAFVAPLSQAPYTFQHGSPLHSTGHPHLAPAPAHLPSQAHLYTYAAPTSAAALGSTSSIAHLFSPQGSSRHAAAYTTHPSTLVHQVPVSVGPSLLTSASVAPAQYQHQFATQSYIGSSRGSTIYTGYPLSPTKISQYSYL

[11] = biological target: Inhibitor of nuclear factor kappa-B kinase subunit beta (Homo sapiens) (UniProt O14920); assay: Inhibition of T7 bacteriophage fused human IKK-beta at 10 uM by KINOMEscan analysis relative to control
[12] = biological target: Interleukin-1 receptor-associated kinase 1 (Homo sapiens) (UniProt P51617); assay: Inhibition of T7 bacteriophage fused human IRAK1 at 10 uM by KINOMEscan analysis relative to control
[13] = biological target: Mast/stem cell growth factor receptor Kit (Homo sapiens) (UniProt P10721); assay: Inhibition of T7 bacteriophage fused human KIT at 10 uM by KINOMEscan analysis relative to control
Chain of Mast/stem cell growth factor receptor Kit (Homo sapiens) (P10721 whole entry, the tested form may be a part): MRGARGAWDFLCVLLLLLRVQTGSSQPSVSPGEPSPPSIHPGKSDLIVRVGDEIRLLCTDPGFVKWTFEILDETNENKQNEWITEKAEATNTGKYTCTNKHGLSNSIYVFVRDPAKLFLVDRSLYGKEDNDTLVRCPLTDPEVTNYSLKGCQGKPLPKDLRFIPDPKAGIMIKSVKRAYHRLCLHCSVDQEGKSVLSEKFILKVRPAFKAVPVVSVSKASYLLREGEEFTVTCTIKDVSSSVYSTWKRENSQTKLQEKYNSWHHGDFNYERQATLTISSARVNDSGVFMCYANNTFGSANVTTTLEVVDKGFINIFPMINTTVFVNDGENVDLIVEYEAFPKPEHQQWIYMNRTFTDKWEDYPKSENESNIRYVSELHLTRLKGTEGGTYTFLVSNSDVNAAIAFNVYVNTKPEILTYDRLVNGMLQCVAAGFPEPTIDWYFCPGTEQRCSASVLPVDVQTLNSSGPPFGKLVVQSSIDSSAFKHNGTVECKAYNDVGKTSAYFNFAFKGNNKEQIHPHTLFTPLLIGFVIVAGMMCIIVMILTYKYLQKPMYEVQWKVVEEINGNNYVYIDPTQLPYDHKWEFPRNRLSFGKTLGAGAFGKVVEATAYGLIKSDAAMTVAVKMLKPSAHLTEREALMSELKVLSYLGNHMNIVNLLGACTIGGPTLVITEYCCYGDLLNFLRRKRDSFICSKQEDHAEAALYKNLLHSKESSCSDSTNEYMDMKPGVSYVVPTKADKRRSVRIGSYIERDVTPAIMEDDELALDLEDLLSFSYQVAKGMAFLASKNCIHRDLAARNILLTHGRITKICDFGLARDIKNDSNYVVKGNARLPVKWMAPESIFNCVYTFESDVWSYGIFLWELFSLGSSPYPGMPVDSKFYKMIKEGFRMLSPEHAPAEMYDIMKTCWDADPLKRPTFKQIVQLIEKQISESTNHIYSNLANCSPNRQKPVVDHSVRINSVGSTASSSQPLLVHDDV

[14] = test system: Mast/stem cell growth factor receptor Kit (Homo sapiens), P10721 [L576P]; assay: Inhibition of T7 bacteriophage fused human KIT L576P mutant at 10 uM by KINOMEscan analysis relative to control
Chain of Mast/stem cell growth factor receptor Kit (Homo sapiens), P10721 [L576P] (P10721 whole entry L576P, the tested form may be a part): as the sequence (P10721 whole entry, the tested form may be a part) above, with L576P counted along it

[15] = biological target: Tyrosine-protein kinase Lyn (Homo sapiens) (UniProt P07948); assay: Inhibition of T7 bacteriophage fused human LYN at 10 uM by KINOMEscan analysis relative to control
[16] = biological target: Serine/threonine-protein kinase PLK2 (Homo sapiens) (UniProt Q9NYY3); assay: Inhibition of T7 bacteriophage fused human PLK2 at 10 uM by KINOMEscan analysis relative to control
[17] = biological target: Protein kinase C eta type (Homo sapiens) (UniProt P24723); assay: Inhibition of T7 bacteriophage fused human PRKCH at 10 uM by KINOMEscan analysis relative to control
[18] = test system: Proto-oncogene tyrosine-protein kinase receptor Ret (Homo sapiens), P07949 [M918T]; assay: Inhibition of T7 bacteriophage fused human RET M918T mutant at 10 uM by KINOMEscan analysis relative to control
[19] = test system: Proto-oncogene tyrosine-protein kinase receptor Ret (Homo sapiens), P07949 [V804M]; assay: Inhibition of T7 bacteriophage fused human RET V804M mutant at 10 uM by KINOMEscan analysis relative to control
[20] = biological target: Ribosomal protein S6 kinase alpha-4 (Homo sapiens) (UniProt O75676); assay: Inhibition of T7 bacteriophage fused human N-terminal RPS6KA4 Kinase domain-1 at 10 uM by KINOMEscan analysis relative to control
[21] = biological target: Focal adhesion kinase 1 (Homo sapiens) (UniProt Q05397); assay: Inhibition of T7 bacteriophage fused human FAK at 10 uM by KINOMEscan analysis relative to control; values are per cent of control
[22] = biological target: Tyrosine-protein kinase Fer (Homo sapiens) (UniProt P16591); assay: Inhibition of T7 bacteriophage fused human FER at 10 uM by KINOMEscan analysis relative to control; values are per cent of control
[23] = biological target: Mitogen-activated protein kinase 1 (Homo sapiens) (UniProt P28482); assay: Inhibition of T7 bacteriophage fused human ERK2 at 10 uM by KINOMEscan analysis relative to control; values are per cent of control
Chain of Mitogen-activated protein kinase 1 (Homo sapiens) (P28482 whole entry, the tested form may be a part): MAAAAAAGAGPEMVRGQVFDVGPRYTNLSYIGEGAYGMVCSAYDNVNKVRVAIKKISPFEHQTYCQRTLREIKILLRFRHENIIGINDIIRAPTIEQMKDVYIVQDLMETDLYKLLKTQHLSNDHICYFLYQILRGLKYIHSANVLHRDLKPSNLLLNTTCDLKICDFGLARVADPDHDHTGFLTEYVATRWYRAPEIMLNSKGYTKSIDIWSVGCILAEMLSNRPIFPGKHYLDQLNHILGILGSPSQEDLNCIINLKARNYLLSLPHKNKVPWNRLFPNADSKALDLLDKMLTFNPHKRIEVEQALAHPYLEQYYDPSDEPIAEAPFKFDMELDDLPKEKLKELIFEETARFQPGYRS

[24] = biological target: Mitogen-activated protein kinase 7 (Homo sapiens, UniProt Q13164); assay: Inhibition of T7 bacteriophage fused human ERK5 at 10 uM by KINOMEscan analysis relative to control; values are per cent of control
[25] = biological target: Mitogen-activated protein kinase 8 (Homo sapiens) (UniProt P45983); assay: Inhibition of T7 bacteriophage fused human JNK1 at 10 uM by KINOMEscan analysis relative to control; values are per cent of control
[26] = biological target: Fibroblast growth factor receptor 2 (Homo sapiens) (UniProt P21802); assay: Inhibition of T7 bacteriophage fused human FGFR2 at 10 uM by KINOMEscan analysis relative to control; values are per cent of control
[27] = biological target: Homeodomain-interacting protein kinase 3 (Homo sapiens) (UniProt Q9H422); assay: Inhibition of T7 bacteriophage fused human HIPK3 at 10 uM by KINOMEscan analysis relative to control; values are per cent of control
[28] = biological target: Leucine-rich repeat serine/threonine-protein kinase 2 (Homo sapiens) (UniProt Q5S007); assay: Inhibition of T7 bacteriophage fused human LRRK2 at 10 uM by KINOMEscan analysis relative to control; values are per cent of control
Chain of Leucine-rich repeat serine/threonine-protein kinase 2 (Homo sapiens) (Q5S007 whole entry, the tested form may be a part): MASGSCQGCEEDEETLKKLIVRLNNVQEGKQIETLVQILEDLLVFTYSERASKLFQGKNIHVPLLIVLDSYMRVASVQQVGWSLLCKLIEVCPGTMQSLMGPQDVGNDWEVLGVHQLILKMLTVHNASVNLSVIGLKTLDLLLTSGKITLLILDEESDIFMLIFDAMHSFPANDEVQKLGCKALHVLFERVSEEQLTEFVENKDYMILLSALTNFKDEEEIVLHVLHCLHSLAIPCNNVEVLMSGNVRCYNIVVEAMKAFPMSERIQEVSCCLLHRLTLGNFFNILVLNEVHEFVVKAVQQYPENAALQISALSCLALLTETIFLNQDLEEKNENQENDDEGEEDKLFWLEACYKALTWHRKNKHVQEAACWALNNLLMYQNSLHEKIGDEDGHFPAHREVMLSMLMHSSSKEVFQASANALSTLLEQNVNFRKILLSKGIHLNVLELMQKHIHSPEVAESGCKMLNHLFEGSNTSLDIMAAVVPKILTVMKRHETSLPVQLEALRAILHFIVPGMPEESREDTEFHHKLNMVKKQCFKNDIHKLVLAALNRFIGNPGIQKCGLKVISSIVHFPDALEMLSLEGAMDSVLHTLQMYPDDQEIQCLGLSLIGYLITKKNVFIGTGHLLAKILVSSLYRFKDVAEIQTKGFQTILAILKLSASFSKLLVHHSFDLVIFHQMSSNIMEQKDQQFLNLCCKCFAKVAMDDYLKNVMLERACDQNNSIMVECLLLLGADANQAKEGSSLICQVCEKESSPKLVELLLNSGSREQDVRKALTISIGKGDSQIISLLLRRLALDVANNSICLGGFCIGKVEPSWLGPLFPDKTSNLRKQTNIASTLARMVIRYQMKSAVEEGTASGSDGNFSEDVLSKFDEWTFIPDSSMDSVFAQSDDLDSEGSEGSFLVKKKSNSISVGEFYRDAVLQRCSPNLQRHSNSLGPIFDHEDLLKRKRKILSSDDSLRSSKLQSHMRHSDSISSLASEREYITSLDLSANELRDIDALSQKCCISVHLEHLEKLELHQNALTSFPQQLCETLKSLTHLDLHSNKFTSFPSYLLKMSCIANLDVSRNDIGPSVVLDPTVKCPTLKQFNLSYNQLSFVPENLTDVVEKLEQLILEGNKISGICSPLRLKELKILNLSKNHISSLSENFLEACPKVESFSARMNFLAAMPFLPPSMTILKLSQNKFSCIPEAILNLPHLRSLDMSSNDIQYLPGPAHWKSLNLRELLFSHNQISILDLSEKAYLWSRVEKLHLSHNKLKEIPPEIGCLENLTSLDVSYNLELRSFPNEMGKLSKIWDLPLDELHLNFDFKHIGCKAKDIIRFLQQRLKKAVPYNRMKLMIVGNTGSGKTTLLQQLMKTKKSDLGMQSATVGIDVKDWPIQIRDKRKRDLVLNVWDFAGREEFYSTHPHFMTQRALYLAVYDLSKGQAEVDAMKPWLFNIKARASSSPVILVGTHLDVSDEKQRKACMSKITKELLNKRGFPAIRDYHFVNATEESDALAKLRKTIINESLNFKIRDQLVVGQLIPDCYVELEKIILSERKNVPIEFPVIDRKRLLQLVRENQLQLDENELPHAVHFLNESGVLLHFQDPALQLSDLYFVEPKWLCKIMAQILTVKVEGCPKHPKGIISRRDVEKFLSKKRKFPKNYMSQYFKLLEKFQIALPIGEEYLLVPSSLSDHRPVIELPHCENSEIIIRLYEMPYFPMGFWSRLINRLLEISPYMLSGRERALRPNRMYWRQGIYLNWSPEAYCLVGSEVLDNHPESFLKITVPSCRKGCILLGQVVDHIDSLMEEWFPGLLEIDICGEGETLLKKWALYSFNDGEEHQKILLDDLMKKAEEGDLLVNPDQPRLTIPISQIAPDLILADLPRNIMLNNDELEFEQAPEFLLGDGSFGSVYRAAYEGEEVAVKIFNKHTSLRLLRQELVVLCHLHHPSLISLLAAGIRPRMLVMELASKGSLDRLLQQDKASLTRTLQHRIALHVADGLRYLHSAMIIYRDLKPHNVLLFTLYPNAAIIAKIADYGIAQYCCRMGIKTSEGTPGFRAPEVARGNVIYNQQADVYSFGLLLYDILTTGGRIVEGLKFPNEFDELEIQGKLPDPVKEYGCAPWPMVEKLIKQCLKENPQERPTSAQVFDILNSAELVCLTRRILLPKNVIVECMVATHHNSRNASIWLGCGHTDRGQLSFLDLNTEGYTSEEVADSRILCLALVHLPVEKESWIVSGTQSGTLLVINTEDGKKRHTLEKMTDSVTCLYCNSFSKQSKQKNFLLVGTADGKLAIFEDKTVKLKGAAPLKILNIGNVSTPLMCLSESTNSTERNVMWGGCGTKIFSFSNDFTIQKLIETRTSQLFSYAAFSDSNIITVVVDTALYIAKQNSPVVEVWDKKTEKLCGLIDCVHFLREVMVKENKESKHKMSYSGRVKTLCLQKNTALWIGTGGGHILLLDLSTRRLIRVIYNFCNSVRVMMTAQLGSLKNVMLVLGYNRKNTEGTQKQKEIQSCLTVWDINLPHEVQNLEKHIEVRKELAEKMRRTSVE

[29] = biological target: Leucine-rich repeat serine/threonine-protein kinase 2 (Homo sapiens) (UniProt Q5S007); assay: Inhibition of LRRK2 phosphorylation at Ser935 residue in EBV immortalized human derived lymphoblastoid cells at 0.01 to 3 uM incubated for 90 mins by immunoblot analysis; format: cell-based; conditions: Lymphoblastoid cell, dose 0.01-3 µM
[30] = biological target: Serine/threonine-protein kinase A-Raf (Homo sapiens) (UniProt P10398); assay: Inhibition of ARAF Lys2 labeling site in human HEL cell lysate at 10 uM by KiNativ profiling analysis relative to control; format: subcellular

Compound `COc1cc(N2CCC(N3CCN(C)CC3)CC2)ccc1Nc1ncc2c(n1)N(C)c1ccccc1C(=O)N2C` has an inhibition [1] of 100%, an inhibition [2] of 100% and an inhibition [3] of 100%. For the same compound, the inhibition [4] was 100%, the inhibition [5] was 100% and the inhibition [6] was 100%. It also gave an inhibition [7] of 100%, an inhibition [8] of 100% and an inhibition [9] of 100%. It also gave an inhibition [10] of 100%, an inhibition [11] of 89% and an inhibition [12] of 100%. The inhibition [13] was 100%, the inhibition [14] was 100% and the inhibition [15] was 100%. For the same compound, the inhibition [16] was 100%, the inhibition [17] was 100% and the inhibition [18] was 100%. It also gave an inhibition [19] of 80%, an inhibition [20] of 100% and a residual activity [21] of 34%. It also gave a residual activity [22] of 51%, a residual activity [23] of 85% and a residual activity [24] of 0.05%. It also gave a residual activity [25] of 95%, a residual activity [26] of 95% and a residual activity [27] of 89%. It also gave a residual activity [28] of 0%.
With `CCOc1cc(C(=O)N2CCC(N3CCN(C)CC3)CC2)ccc1Nc1ncc2c(n1)N(C1CCCC1)c1ccccc1C(=O)N2C` the inhibition [29] was “inactive”.
Work on `COc1cc(C(=O)N2CCC(N3CCN(C)CC3)CC2)ccc1Nc1ncc2c(n1)N(C1CCCC1)c1ccccc1C(=O)N2C` yielded an inhibition [30] of -0.7%.
